This passage reports MIC results from PMC9022596, “Convergent Evolution of Antibiotic Tolerance in Patients with Persistent Methicillin-Resistant Staphylococcus aureus Bacteremia” (Infection and Immunity, 2022).

“And” between values parts separate entries of the source, which are not always exact repeats. Equal entries are not always repeated.

Common to all, as to assay: microbe, parasite or virus in culture
The subject of test [1] is T1, Staphylococcus aureus PB1803.
T1 construct: PB1803
More on the design: species or system Staphylococcus aureus clinical blood isolates and ATCC 29213; Broth microdilution MIC in cation-adjusted Mueller-Hinton broth with 50 ug/mL CaCl2, EUCAST reading, 37 C. As to conditions: PB1803, 16 h, replicate MIC, MHB + 50 ug/mL CaCl2. As to the method:
(§1) MICs were measured in cation-adjusted Mueller-Hinton broth (MHB) supplemented with 50 μg/mL CaCl2 (MHB-Ca^2+) via broth microdilution in 96-well plates with an inoculum of ∼5 × 10^5 CFU per mL. Antibiotic test concentrations ranged from 0.0625 μg/mL to 32 μg/mL by 2-fold dilutions. Plates were incubated at 37°C for 16 h without shaking, and results were interpreted in accordance with European Committee on Antimicrobial Susceptibility Testing reading guidelines ([72]). S. aureus ATCC 29213 was used as a quality-control strain.

The subject of test [2] is T2, Staphylococcus aureus PB0804.
T2 construct: PB0804
Set-up: species or system Staphylococcus aureus clinical blood isolates and ATCC 29213; Broth microdilution MIC in cation-adjusted Mueller-Hinton broth with 50 ug/mL CaCl2, EUCAST reading, 37 C. As to conditions: PB0804, 16 h, replicate MIC, MHB + 50 ug/mL CaCl2. As to the method:
as §1

Test [3] has as its system T3, S. aureus ATCC 29213.
T3 construct: ATCC 29213
More on the design: species or system Staphylococcus aureus clinical blood isolates and ATCC 29213; Broth microdilution MIC in cation-adjusted Mueller-Hinton broth with 50 ug/mL CaCl2, EUCAST reading, 37 C. As to conditions: Staphylococcus aureus, ATCC29213, 16 h; replicate MIC, MHB + 50 ug/mL CaCl2. As for the experimental part:
as §1

Test [4] relates to T4, Staphylococcus aureus PB0610.
T4 construct: PB0610
Set-up: species or system Staphylococcus aureus clinical blood isolates and ATCC 29213; Broth microdilution MIC in cation-adjusted Mueller-Hinton broth with 50 ug/mL CaCl2, EUCAST reading, 37 C. To be noted: PB0610, 16 h, replicate MIC, MHB + 50 ug/mL CaCl2. As to the method:
as §1

The test system of test [5] is T5, Staphylococcus aureus PB0208.
T5 construct: PB0208
More on the design: species or system Staphylococcus aureus clinical blood isolates and ATCC 29213; Broth microdilution MIC in cation-adjusted Mueller-Hinton broth with 50 ug/mL CaCl2, EUCAST reading, 37 C. To be noted: PB0208, 16 h, replicate MIC, MHB + 50 ug/mL CaCl2. As for the experimental part: as §1

The test system of test [6] is T6, Staphylococcus aureus PB0101.
T6 construct: PB0101
More on the design: species or system Staphylococcus aureus clinical blood isolates and ATCC 29213; Broth microdilution MIC in cation-adjusted Mueller-Hinton broth with 50 ug/mL CaCl2, EUCAST reading, 37 C. To be noted: PB0101, 16 h, replicate MIC, MHB + 50 ug/mL CaCl2. As to the method:
as §1

In test [7] the test system is T7, Staphylococcus aureus PB0906.
T7 construct: PB0906
Set-up: species or system Staphylococcus aureus clinical blood isolates and ATCC 29213; Broth microdilution MIC in cation-adjusted Mueller-Hinton broth with 50 ug/mL CaCl2, EUCAST reading, 37 C. To be noted: PB0906, 16 h, replicate MIC, MHB + 50 ug/mL CaCl2. As to the method:
as §1

The test system of test [8] is T8, Staphylococcus aureus PB0603.
T8 construct: PB0603
Set-up: species or system Staphylococcus aureus clinical blood isolates and ATCC 29213; Broth microdilution MIC in cation-adjusted Mueller-Hinton broth with 50 ug/mL CaCl2, EUCAST reading, 37 C. To be noted: PB0603, 16 h, replicate MIC, MHB + 50 ug/mL CaCl2. As for the experimental part:
as §1

Test [9] has as its system T9, Staphylococcus aureus PB0911.
T9 construct: PB0911
More on the design: species or system Staphylococcus aureus clinical blood isolates and ATCC 29213; Broth microdilution MIC in cation-adjusted Mueller-Hinton broth with 50 ug/mL CaCl2, EUCAST reading, 37 C. To be noted: PB0911, 16 h, replicate MIC, MHB + 50 ug/mL CaCl2. As to the method:
as §1

Test [10] concerns T10, Staphylococcus aureus PB1405.
T10 construct: PB1405
More on the design: species or system Staphylococcus aureus clinical blood isolates and ATCC 29213; Broth microdilution MIC in cation-adjusted Mueller-Hinton broth with 50 ug/mL CaCl2, EUCAST reading, 37 C. To be noted: PB1405, 16 h, replicate MIC, MHB + 50 ug/mL CaCl2. As to the method: as §1

The test system of test [11] is T11, Staphylococcus aureus PB0702.
T11 construct: PB0702
Set-up: species or system Staphylococcus aureus clinical blood isolates and ATCC 29213; Broth microdilution MIC in cation-adjusted Mueller-Hinton broth with 50 ug/mL CaCl2, EUCAST reading, 37 C. To be noted: PB0702, 16 h, replicate MIC, MHB + 50 ug/mL CaCl2. As for the experimental part: as §1

Test [12] concerns T12, Staphylococcus aureus PB1801.
T12 construct: PB1801
Set-up: Broth microdilution MIC in cation-adjusted MHB-Ca2+, growth inhibition per EUCAST reading. To be noted: PB1801, 16 h. As to the method: (§2) MICs were measured in cation-adjusted Mueller-Hinton broth (MHB) supplemented with 50 μg/mL CaCl2 (MHB-Ca^2+) via broth microdilution in 96-well plates with an inoculum of ∼5 × 10^5 CFU per mL. Antibiotic test concentrations ranged from 0.0625 μg/mL to 32 μg/mL by 2-fold dilutions. Plates were incubated at 37°C for 16 h without shaking, and results were interpreted in accordance with European Committee on Antimicrobial Susceptibility Testing reading guidelines ([72]). S. aureus ATCC 29213 was used as a quality-control strain. TCA cycle defects have been shown previously to cause antibiotic tolerance in laboratory strains of methicillin-sensitive S. aureus (MSSA) ([13], [16]). […] To test this hypothesis, we complemented three of the clinical isolates harboring loss-of-function citZ mutations with either wild-type citZ (pOS1-citZ) or empty vector (pOS1) and then measured bacterial survival through time after exposure to ceftaroline, daptomycin, vancomycin, or the combination of daptomycin plus ceftaroline (Fig. 3). These antibiotics were chosen for their clinical relevance in the treatment of severe MRSA infection.

Test [13] deals with T13, Staphylococcus aureus PB1407.
T13 construct: PB1407
Set-up: Broth microdilution MIC in cation-adjusted MHB-Ca2+, growth inhibition per EUCAST reading. To be noted: PB1407, 16 h. As to the method: as §2

With `CCO/N=C(\C(=O)N[C@@H]1C(=O)N2C(C(=O)[O-])=C(Sc3nc(-c4cc[n+](C)cc4)cs3)CS[C@H]12)c1nsc(N)n1` [Ceftaroline], the MIC in [1] was 0.5 µg/mL; in test [2], 0.5 µg/mL; in test [3] it was 0.25 µg/mL; in [4] it was 0.25 µg/mL; in [5], 0.5 µg/mL; in [6], 0.5 µg/mL. Further, the MIC in test [7] was 0.5 µg/mL; in test [8], 0.25 µg/mL; in test [9] it was 0.5 µg/mL; in test [10], 0.25 µg/mL; in test [11] it was 0.5 µg/mL; in test [12] (replicate 1) it was 0.5 µg/mL. Further, the MIC in [12] (replicate 2), in [13] (replicate 1) and in test [13] (replicate 2) was 0.5 µg/mL in each case.
For the compound `CCCCCCCCCC(=O)N[C@@H](Cc1c[nH]c2ccccc12)C(=O)N[C@H](CC(N)=O)C(=O)N[C@@H](CC(=O)O)C(=O)N[C@@H]1C(=O)NCC(=O)N[C@@H](CCCN)C(=O)N[C@@H](CC(=O)O)C(=O)N[C@H](C)C(=O)N[C@@H](CC(=O)O)C(=O)NCC(=O)N[C@H](CO)C(=O)N[C@@H]([C@H](C)CC(=O)O)C(=O)N[C@@H](CC(=O)c2ccccc2N)C(=O)O[C@@H]1C` [Daptomycin], the MIC in [1] was 2 µg/mL; in test [2] it was 1 µg/mL; in test [3] it was 1 µg/mL; in [4], 1 µg/mL; in test [5], 1 µg/mL; in [6] it was 1 µg/mL. The MIC is 2 µg/mL in [7]; 2 µg/mL in test [8]; 2 µg/mL and 1 µg/mL in test [9]; 2 µg/mL and 1 µg/mL in test [10]; 2 µg/mL in test [11]; 2 µg/mL in [12] (replicate 1). Further, the MIC in test [12] (replicate 2), in [13] (replicate 1) and in test [13] (replicate 2) was 2 µg/mL each time.
For the compound `CC(=O)NC[C@H]1CN(c2ccc(N3CCOCC3)c(F)c2)C(=O)O1` [Linezolid], the MIC in [1] turned out to be 4 µg/mL; in test [2], 2 µg/mL; in test [3], 4 µg/mL; in test [4], 4 µg/mL; in test [5], 4 µg/mL; in test [6] it was 4 µg/mL. For the same compound, the MIC in [7], in test [8], in test [9], in test [10], in test [11] and in [12] (replicate 1) was 4 µg/mL throughout. Also, the MIC in [12] (replicate 2), in test [13] (replicate 1) and in [13] (replicate 2) was 4 µg/mL in each case.
In the case of `CN[C@H](CC(C)C)C(=O)N[C@H]1C(=O)N[C@@H](CC(N)=O)C(=O)N[C@H]2C(=O)N[C@H]3C(=O)N[C@H](C(=O)N[C@H](C(=O)O)c4cc(O)cc(O)c4-c4cc3ccc4O)[C@H](O)c3ccc(c(Cl)c3)Oc3cc2cc(c3O[C@@H]2O[C@H](CO)[C@@H](O)[C@H](O)[C@H]2O[C@H]2C[C@](C)(N)[C@H](O)[C@H](C)O2)Oc2ccc(cc2Cl)[C@H]1O` [Vancomycin], the MIC was 2 µg/mL in [1]; 2 µg/mL in test [2]; 2 µg/mL in test [3]; 2 µg/mL and 4 µg/mL in test [4]; 4 µg/mL in test [5]; 2 µg/mL in test [6]. The MIC in test [7] was 2 µg/mL; in test [8], 4 µg/mL and 2 µg/mL; in test [9], 2 µg/mL; in test [10], 2 µg/mL; in test [11] it was 2 µg/mL; in [12] (replicate 1), 2 µg/mL. Further, the MIC in test [12] (replicate 2), in test [13] (replicate 1) and in test [13] (replicate 2) was 2 µg/mL each time.
